Results from paper PMC8016998, “Identification of potential therapeutic antimicrobial peptides against Acinetobacter baumannii in a mouse model of pneumonia” (Scientific Reports, 2021).
In brackets after ≈: the same amount, converted by molar mass. No end group written: not given here.

Experiments:
[1] = test system: Acinetobacter baumannii 17,978; assay type: cell-based; settings: 17,978, 24 h;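 further: CLSI broth microdilution in 96-well polypropylene plates, MBC taken as lowest concentration giving no growth when clear wells were subcultured on LB agar for 24 h at 37 °C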
[2] = test system: Acinetobacter baumannii 19,606; assay type: cell-based; settings: 19,606, 24 h
MDRAB strain BF50 = assay type: cell-based, Acinetobacter baumannii; settings: 24 h
Experimental: (§1) All AMPs and TP4 derivatives used in this study were synthesized by Kelowna International Scientific Inc. (Taipei City, Taiwan) with more than 95% purity, and their molecular weights were verified by mass spectrum analysis. MBC were determined by extending the MIC procedure in sterilized 96-well polypropylene microtiter plates according to the broth microdilution guidelines of the Clinical and Laboratory Standards Institute with some modification. Briefly, 5 × 10^5 CFU/mL of bacteria were inoculated in LB medium containing AMPs or antibiotic at final concentrations ranging from 512 to 1 μg/mL (from serial twofold dilutions). After incubation for 24 h at 37 °C, the lowest concentration showing no visible growth was used as the MIC value. In addition, 10 µL was drawn from each well with no visible turbidity onto LB agar plates and incubated for 24 h at 37 °C. The lowest concentration showing no visible growth on agar subculture was used as the MBC value. All experiments were performed in triplicate.

MDRAB strain MO91 = assay type: cell-based, Acinetobacter baumannii; settings: 24 h
Experimental: as §1

CC[C@H](C)[C@H](NC(=O)[C@H](CO)NC(=O)[C@H](Cc1ccccc1)NC(=O)[C@H](CC(C)C)NC(=O)CNC(=O)CNC(=O)[C@@H](NC(=O)[C@@H](NC(=O)[C@H](Cc1c[nH]cn1)NC(=O)[C@H](Cc1c[nH]cn1)NC(=O)[C@@H](NC(=O)[C@@H](N)Cc1ccccc1)[C@@H](C)CC)[C@@H](C)CC)[C@@H](C)CC)C(=O)NCC(=O)N[C@@H](CCCCN)C(=O)N[C@H](C(=O)N[C@H](C(=O)N[C@@H](Cc1c[nH]cn1)C(=O)N[C@@H](CCCNC(=N)N)C(=O)N[C@@H](CC(C)C)C(=O)N[C@H](C(=O)N[C@@H](CCCNC(=N)N)C(=O)N[C@@H](CCCNC(=N)N)C(=O)N[C@@H](CCCNC(=N)N)C(=O)N[C@@H](CCCNC(=N)N)C(=O)N[C@@H](CCCNC(=N)N)C(=O)O)[C@@H](C)CC)[C@@H](C)CC)[C@@H](C)CC [A12I/A15I]
MBC [1]: 64 µg/mL (≈ 20.9 µM) | MIC [1]: 64 µg/mL (≈ 20.9 µM) | MBC [2]: 128 µg/mL (≈ 41.8 µM) | MIC [2]: 32 µg/mL (≈ 10.4 µM) | MBC (MDRAB strain BF50): 128 µg/mL (≈ 41.8 µM) | MIC (MDRAB strain BF50): 64 µg/mL (≈ 20.9 µM) | MBC (MDRAB strain MO91): 128 µg/mL (≈ 41.8 µM) | MIC (MDRAB strain MO91): 32 µg/mL (≈ 10.4 µM)

AAHHIIGGLFSAGKAIHRLIRRRRR [F1A/I2A]
MBC [1]: 32 µg/mL | MIC [1]: 32 µg/mL | MBC [2]: 16 µg/mL | MIC [2]: 16 µg/mL | MBC (MDRAB strain BF50): 32 µg/mL | MIC (MDRAB strain BF50): 16 µg/mL | MBC (MDRAB strain MO91): 32 µg/mL | MIC (MDRAB strain MO91): 32 µg/mL

FIAAIIGGLFSAGKAIHRLIRRRRR [H3A/H4A]
MBC [1]: 128 µg/mL | MIC [1]: 64 µg/mL | MBC [2]: 64 µg/mL | MIC [2]: 64 µg/mL | MBC (MDRAB strain BF50): 128 µg/mL | MIC (MDRAB strain BF50): 64 µg/mL | MBC (MDRAB strain MO91): 256 µg/mL | MIC (MDRAB strain MO91): 64 µg/mL

FIHHAAGGLFSAGKAIHRLIRRRRR [I5A/I6A]
MBC [1]: 32 µg/mL | MIC [1]: 32 µg/mL | MBC [2]: 64 µg/mL | MIC [2]: 64 µg/mL | MBC (MDRAB strain BF50): 64 µg/mL | MIC (MDRAB strain BF50): 32 µg/mL | MBC (MDRAB strain MO91): 128 µg/mL | MIC (MDRAB strain MO91): 64 µg/mL

FIHHIIGGAASAGKAIHRLIRRRRR [L9A/F10A]
MBC [1]: 64 µg/mL | MIC [1]: 64 µg/mL | MBC [2]: 128 µg/mL | MIC [2]: 64 µg/mL | MBC (MDRAB strain BF50): 64 µg/mL | MIC (MDRAB strain BF50): 64 µg/mL | MBC (MDRAB strain MO91): 128 µg/mL | MIC (MDRAB strain MO91): 128 µg/mL

FIHHIIGGLFSAGKAAHRLIRRRRR [Peptide I16A]
MBC [1]: 32 µg/mL | MIC [1]: 16 µg/mL | MBC [2]: 32 µg/mL | MIC [2]: 32 µg/mL | MBC (MDRAB strain BF50): 16 µg/mL | MIC (MDRAB strain BF50): 16 µg/mL | MBC (MDRAB strain MO91): 32 µg/mL | MIC (MDRAB strain MO91): 16 µg/mL

FIHHIIGGLFSAGKAEHRLIRRRRR [Peptide I16E]
MBC [1]: > 256 µg/mL | MIC [1]: > 256 µg/mL | MBC [2]: > 256 µg/mL | MIC [2]: > 256 µg/mL | MBC (MDRAB strain BF50): > 256 µg/mL | MIC (MDRAB strain BF50): > 256 µg/mL | MBC (MDRAB strain MO91): > 256 µg/mL | MIC (MDRAB strain MO91): > 256 µg/mL

FIHHIIGGLFSAGKAIHRHHRRRRR [L19H/I20H]
MBC [1]: 32 µg/mL | MIC [1]: 32 µg/mL | MBC [2]: 64 µg/mL | MIC [2]: 64 µg/mL | MBC (MDRAB strain BF50): 32 µg/mL | MIC (MDRAB strain BF50): 32 µg/mL | MBC (MDRAB strain MO91): 32 µg/mL | MIC (MDRAB strain MO91): 32 µg/mL

FIHHIIGGLFSAGKAIHSLIHRRRR [R18S/R21H]
MBC [1]: 32 µg/mL | MIC [1]: 16 µg/mL | MBC [2]: 32 µg/mL | MIC [2]: 32 µg/mL | MBC (MDRAB strain BF50): 64 µg/mL | MIC (MDRAB strain BF50): 16 µg/mL | MBC (MDRAB strain MO91): 32 µg/mL | MIC (MDRAB strain MO91): 32 µg/mL

FIHHIIGGLFSAGKARHRLIRRRRR [Peptide I16R]
MBC [1]: 128 µg/mL | MIC [1]: 128 µg/mL | MBC [2]: 64 µg/mL | MIC [2]: 64 µg/mL | MBC (MDRAB strain BF50): 128 µg/mL | MIC (MDRAB strain BF50): 64 µg/mL | MBC (MDRAB strain MO91): 256 µg/mL | MIC (MDRAB strain MO91): 64 µg/mL

FIHHIIGGLFSVGKHIHRLIRRRRR [A12V/A15H]
MBC [1]: 32 µg/mL | MIC [1]: 16 µg/mL | MBC [2]: 32 µg/mL | MIC [2]: 16 µg/mL | MBC (MDRAB strain BF50): 128 µg/mL | MIC (MDRAB strain BF50): 16 µg/mL | MBC (MDRAB strain MO91): 256 µg/mL | MIC (MDRAB strain MO91): 16 µg/mL
